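Assay format: 96-well plates, 48-hour exposure. GI50 marks 50% less growth. At the TGI there is no net growth.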
Experiments:
Experiment in all cases: inhibition of tumour cell growth, NCI panel, 48 h
[1] = system: SK-MEL-2 melanoma
[2] = system: OVCAR-8 ovarian
[3] = system: BT-549 breast
[4] = system: NCI-H522 lung
[5] = system: COLO 205 colon
[6] = system: 786-0 renal
[7] = system: A498 renal
[8] = system: SR leukemia
[9] = system: NCI-H226 lung
[10] = system: MDA-MB-231 breast
[11] = system: A549 NSCLC
[12] = system: SW-620 colon
[13] = system: DU-145 prostate
[14] = system: NCI-H460 lung
[15] = system: HCT-116 colon
[16] = system: HCC-2998 colon
[17] = system: SF-539 CNS
[18] = system: SK-OV-3 ovarian
[19] = system: RPMI-8226 leukemia
[20] = system: MOLT-4 leukemia
[21] = system: U251 CNS
[22] = system: MCF7 breast
[23] = system: NCI/ADR-RES ovarian
[24] = system: ACHN renal
[25] = system: SK-MEL-5 melanoma
[26] = system: SF-295 CNS
[27] = system: UACC-257 melanoma
[28] = system: IGROV1 ovarian
[29] = system: SK-MEL-28 melanoma
[30] = system: NCI-H23 lung
[31] = system: HOP-92 NSCLC
[32] = system: HS 578T breast
[33] = system: HCT-15 colon
[34] = system: M14 melanoma
[35] = system: CAKI-1 renal
[36] = system: HOP-62 NSCLC
[37] = system: MDA-MB-435
[38] = system: LOX IMVI melanoma
[39] = system: SNB-19 CNS
[40] = system: HT29 colon
[41] = system: CCRF-CEM leukemia
[42] = system: SNB-75 CNS
[43] = system: OVCAR-5 ovarian
[44] = system: UO-31 renal
[45] = system: MALME-3M melanoma
[46] = system: UACC-62 melanoma
[47] = system: SF-268 CNS
[48] = system: T-47D breast
[49] = system: TK-10 renal
[50] = system: SN12C renal
[51] = system: KM12 colon
[52] = system: PC-3 prostate
[53] = system: K-562 leukemia
[54] = system: OVCAR-4 ovarian

`CCCCCCN1CCN(Cc2ccc(N(CC)CC)cc2)C(=O)C1=O` showed a GI50 [1] of 3.57 µM, a TGI [1] of 21.2 µM and a GI50 [2] of 5.42 µM. For the same molecule, the TGI [2] was greater than 100 µM, the GI50 [3] was 10.2 µM and the TGI [3] was 95.6 µM. It also gave a GI50 [4] of 2.03 µM, a TGI [4] of 5.14 µM and a GI50 [5] of 0.759 µM. For the same molecule, the TGI [5] was 10.1 µM, the GI50 [6] was 4.88 µM and the TGI [6] was greater than 100 µM. The GI50 [7] was 0.973 µM, the TGI [7] was 5.77 µM and the GI50 [8] was 1.03 µM. For the same molecule, the TGI [8] was 13.4 µM, the GI50 [9] was 5.84 µM and the TGI [9] was 27.8 µM. The GI50 [10] was 4.97 µM, the TGI [10] was greater than 100 µM and the GI50 [11] was 4.29 µM. The TGI [11] was greater than 100 µM, the GI50 [12] was 3.07 µM and the TGI [12] was greater than 100 µM. For the same molecule, the GI50 [13] was 3.38 µM, the TGI [13] was 48.7 µM and the GI50 [14] was 3.35 µM. The TGI [14] was 17.3 µM, the GI50 [15] was 3.92 µM and the TGI [15] was greater than 100 µM. For the same molecule, the GI50 [16] was 6.45 µM, the TGI [16] was 28.2 µM and the GI50 [17] was 2.57 µM. It also gave a TGI [17] of 8.23 µM, a GI50 [18] of 3.61 µM and a TGI [18] greater than 100 µM. For the same molecule, the GI50 [19] was 3.63 µM, the TGI [19] was 19.2 µM and the GI50 [20] was 3.42 µM. The TGI [20] was 32.8 µM, the GI50 [21] was 3.99 µM and the TGI [21] was 62.3 µM. The GI50 [22] was 0.58 µM, the TGI [22] was 62.2 µM and the GI50 [23] was 2.72 µM. The GI50 [24] was 6.45 µM, the TGI [24] was greater than 100 µM and the GI50 [25] was 0.412 µM. For the same molecule, the TGI [25] was 11.3 µM, the GI50 [26] was 3.02 µM and the TGI [26] was greater than 100 µM. The GI50 [27] was 16.9 µM, the TGI [27] was greater than 100 µM and the GI50 [28] was 6.63 µM. The TGI [28] was greater than 100 µM, the GI50 [29] was 7.17 µM and the TGI [29] was greater than 100 µM. For the same molecule, the GI50 [30] was 4.05 µM, the TGI [30] was 62.5 µM and the GI50 [31] was 4.21 µM. The TGI [31] was 38.2 µM, the GI50 [32] was 3.14 µM and the TGI [32] was 27.7 µM. For the same molecule, the GI50 [33] was 1.07 µM, the TGI [33] was greater than 100 µM and the GI50 [34] was 2.3 µM. It also gave a TGI [34] of 9.08 µM, a GI50 [35] of 7.23 µM and a TGI [35] greater than 100 µM. For the same molecule, the GI50 [36] was 4.97 µM, the TGI [36] was greater than 100 µM and the GI50 [37] was 0.448 µM. It also gave a TGI [37] of 2.38 µM, a GI50 [38] of 7.95 µM and a TGI [38] greater than 100 µM. It also gave a GI50 [39] of 4.08 µM, a TGI [39] greater than 100 µM and a GI50 [40] of 3.34 µM. For the same molecule, the TGI [40] was greater than 100 µM, the GI50 [41] was 2.69 µM and the TGI [41] was greater than 100 µM. For the same molecule, the GI50 [42] was 1.95 µM, the TGI [42] was 13.1 µM and the GI50 [43] was 5.41 µM. For the same molecule, the TGI [43] was greater than 100 µM, the GI50 [44] was 5.22 µM and the TGI [44] was greater than 100 µM. It also gave a GI50 [45] of 4.25 µM, a TGI [45] greater than 100 µM and a GI50 [46] of 3.54 µM. The TGI [46] was greater than 100 µM, the GI50 [47] was 6.21 µM and the TGI [47] was greater than 100 µM. The GI50 [48] was 5.69 µM, the TGI [48] was greater than 100 µM and the GI50 [49] was 10.3 µM. The TGI [49] was 77.5 µM, the GI50 [50] was 5.19 µM and the TGI [50] was 93.9 µM. It also gave a GI50 [51] of 2.47 µM, a TGI [51] of 82.4 µM and a GI50 [52] of 2.97 µM. For the same molecule, the TGI [52] was 54 µM, the GI50 [53] was 0.832 µM and the TGI [53] was 75.4 µM. For the same molecule, the GI50 [54] was 6.73 µM and the TGI [54] was 79.6 µM.

— PubChem BioAssay (NCI)
